Among the data in PubChem BioAssay (NCI) are GI50 and TGI values, retold here.

Structures are written as SMILES.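 All cell lines were grown in 96-well plates and treated with compound for 48 hours. Abbreviation: GI50, concentration required for 50% inhibition of growth. TGI denotes the concentration required for complete inhibition of growth.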

Experiment in all cases: NCI-60 cell line screen, 48 h
Assay [1] has as its system SNB-75 CNS.
Assay [2] relates to PC-3 prostate.
The test system of assay [3] is SF-295 CNS.
The test system of assay [4] is SK-MEL-28 melanoma.
Assay [5] relates to HCT-116 colon.
The test system of assay [6] is A549 NSCLC.
Assay [7] deals with 786-0 renal.
Assay [8] relates to K-562 leukemia.
Assay [9] deals with NCI/ADR-RES ovarian.
In assay [10] the test system is UO-31 renal.

As to `COc1ccc(O)c(C(=O)c2ccc(C(=O)O[C@@H]3CCCNC[C@H]3NC(=O)c3ccncc3)cc2)c1F`, the GI50 in assay [1] is 0.0788 µM; in assay [2], 3.74 µM; in assay [3], 0.77 µM; in assay [4], 2.73 µM; in assay [5] it was 1.04 µM; in [6], 0.592 µM. For the same compound, the GI50 in assay [7] was 0.403 µM; in assay [8] it was 0.723 µM; in [9] it was 1.87 µM; in assay [10], 0.375 µM. For the same compound, the TGI was above 7.51 µM in assay [1]; above 25 µM in assay [2]; above 25 µM in assay [3]; above 25 µM in assay [4]; above 25 µM in assay [5]; above 25 µM in [6]. Besides, the TGI is above 25 µM in assay [7], above 25 µM in [8], 24.2 µM in assay [9] and above 14 µM in [10].
For `O=C1c2ccccc2C(=O)N1c1ccc(S(=O)(=O)Nc2ncccn2)cc1`, the GI50 in [1], in assay [2], in assay [3], in [4], in [5] and in [6] was above 100 µM throughout. The GI50 in [7], in [8], in assay [9] and in assay [10] was above 100 µM each time. For the same compound, the TGI in assay [1], in [2], in assay [3], in assay [4], in assay [5] and in assay [6] was above 100 µM in each case. In addition, the TGI in assay [7], in [8], in assay [9] and in [10] was above 100 µM each time.
Turning to `C#C[C@]1(O)CC[C@H]2[C@@H]3CC=C4c5sc(N=C(N)N)nc5CC[C@]4(C)[C@H]3CC[C@@]21C`, the GI50 in [1] is 0.152 µM; in [2], 0.475 µM; in [3], 0.188 µM; in [4], 0.4 µM; in [5], 0.989 µM; in assay [6] it was 0.865 µM. In addition, the GI50 in assay [7] was 0.453 µM; in [8], 0.354 µM; in assay [9], 1.44 µM; in [10], 0.307 µM. For the same compound, the TGI in assay [1] came out at 1.32 µM; in [2] it was 1.8 µM; in [3] it was 0.452 µM; in assay [4], 1.61 µM; in assay [5], 2.29 µM; in assay [6], 2.72 µM. Moreover, the TGI is 1.81 µM in assay [7], 1.35 µM in assay [8], 3.59 µM in assay [9] and 0.931 µM in assay [10].
Take `CCC(Sc1nnc2c3ccccc3n(CC)c2n1)C(=O)Nc1ccccc1OC` (stereo not drawn): the GI50 in [1] is 10.8 µM; in assay [2], 59.3 µM; in assay [3], above 100 µM; in [4], above 100 µM; in assay [5], 48.5 µM; in assay [6], 6.4 µM. The GI50 in assay [7] is above 100 µM; in [8] it was above 100 µM; in [9] it was above 100 µM; in [10], 2.12 µM. Moreover, the TGI in [1], in assay [2], in assay [3], in assay [4], in assay [5] and in assay [6] was above 100 µM each time. Moreover, the TGI in assay [7] was above 100 µM; in [8], above 100 µM; in [9], above 100 µM; in assay [10] it was 6.65 µM.
In the case of `O=C(Nc1ccc(Br)cc1)Nc1n[nH]c2ccccc12`, the GI50 in assay [1] was 34.4 µM; in [2] it was above 82.7 µM; in assay [3], above 100 µM; in [4] it was above 100 µM; in assay [5] it was 33.8 µM; in [6] it was above 62.7 µM. For the same compound, the GI50 in [7] was above 100 µM; in assay [8] it was 59.1 µM; in assay [9], above 100 µM; in assay [10] it was 25.8 µM. Also, the TGI is above 82.7 µM in [1]; above 100 µM in assay [2]; above 100 µM in [3]; above 100 µM in assay [4]; above 100 µM in assay [5]; above 100 µM in assay [6]. In addition, the TGI in [7], in assay [8], in assay [9] and in [10] was above 100 µM throughout.
As to `N#Cc1ccccc1C#C/C=C\C#Cc1ccc(OCCCNC(=O)c2cc3ccccc3[nH]2)cc1`, the GI50 was 17.9 µM in assay [1]; 14.7 µM in [2]; 16.1 µM in [3]; 32 µM in assay [4]; 14.8 µM in [5]; 22.9 µM in assay [6]. In addition, the GI50 in assay [7] was 16.1 µM; in assay [8] it was 3.2 µM; in [9], 23.5 µM; in [10], 17 µM. Moreover, the TGI in [1] is 42.6 µM; in assay [2], 45.2 µM; in assay [3] it was 34.6 µM; in assay [4], above 100 µM; in [5], 39.6 µM; in assay [6], above 100 µM. For the same compound, the TGI in [7] is 40.5 µM; in assay [8] it was 19 µM; in assay [9], above 100 µM; in [10], 35.4 µM.
As to `COc1ccc(-c2n[nH]nc2-c2csc3ccccc23)cc1OC`, the GI50 in assay [2] is 3.08 µM; in assay [3], 2.33 µM; in assay [4] it was 4.63 µM; in [5] it was 2.84 µM; in assay [6], 4.52 µM; in assay [7] it was 3.26 µM. In addition, the GI50 is 0.516 µM in [8], 2.39 µM in assay [9] and 2.78 µM in assay [10]. For the same compound, the TGI in assay [2] stood at 35.4 µM; in assay [3] it was 11.7 µM; in assay [4] it was 48.5 µM; in assay [5] it was 15.3 µM; in assay [6] it was 70.9 µM; in assay [7], 22.6 µM. Also, the TGI in [8] was above 100 µM; in assay [9] it was 23.2 µM; in assay [10], 20.8 µM.
